Patent US7935680B2, “Methods for modulating the axonal growth of central nervous system neurons” (Children's Medical Center Corporation, priority 1997, dated 2011)
“Also recorded” adds a separate entry of the source.

Columns and labels:
Format in all cases: cell-based
[1] = test system: goldfish retinal ganglion cells; assay: Axonal outgrowth from dissociated goldfish retinal ganglion cell cultures; conditions: for EC50: goldfish RGCs, 6 days, estimated from dose-response curves; for outgrowth at higher concentrations: concentrations above those giving the maximal response; for axonal outgrowth activity: tested at concentrations between 1-100 μM
Method: Axogenesis factor-1 was obtained essentially as described in Schwalb et al., 1995, and Schwalb et al., Neuroscience, 72: 901-910, 1996, the contents of which are incorporated herein by reference). Optic nerves were dissected, cut into fragments 1 mm in length, and incubated in a ratio of 6 nerves in 3 ml of either L-15 media (Gibco BRL) or phosphate-buffered saline (Gibco BRL). After 3-4 hours, nerve fragments were removed by filtering through a 0.22 μm pore low protein-binding filter (Gelman). A low molecular weight fraction of the conditioned media was prepared by ultrafiltration, first with a molecular weight cut-off of 3 kDa (Amicon Centriprep-3), then with a cut-off of 1 kDa (Filtron). The filtrate was used as a positive control at 20-30% final concentration. […] Goldfish (Comet Variety, Mt. Parnell Fisheries, Mt. Parnell Pa.), 6-10 cm in length, were dark-adapted and their retinas dissected. Retinas were incubated with papain (20 μg/ml), activated with cysteine (2.8 mM) for 30 minutes at room temperature, then dissociated by gentle trituration. […] Neuroscience 15: 5514-5625, 1995, the contents of which are incorporated herein by reference). […] Cells were maintained at 21° C. in serum free, defined media containing insulin, selenium, transferrin, bovine serum albumin, catalase, superoxide dismutase, hormones, and vitamins in Eagle's L-15 media as described in Schwalb et al., 1995, the contents of which are incorporated herein by reference). Dissociated cultures of purified rat retinal ganglion cells were prepared by immunopanning as described in Barres et al., Neuron, 1: 791-803, 1988, the contents of which are incorporated herein by reference). In brief, retinas from postnatal day 8 Sparague-Dawley rats were dissociated using papain activated with cysteine. Macrophages were removed by incubation with an anti-rat macrophage antibody (Accurate) followed by immunopanning with an anti-rabbit 1gG antibody. Ganglion cells were isolated by immunopanning with an anti-Thy-1 antibody, then dislodged with trypsin for use in low-density cultures. Rat retinal ganglion cells were maintained at 37° C. in a CO2 incubator using the same medium described above except for the presence of 30 mM bicarbonate. In a typical experiment, samples were plated in quadruplicate in randomized positions of a 24-well plate and the code was concealed to ensure that growth was evaluated in a blinded fashion. Each experiment contained 4 wells of a negative control (media plus supplements only) and 4 wells of a positive control (a standardized AF-1 sample of known activity). […] After the completion of counting, the code was broken, the data tabulated, and means and standard errors were calculated for the 4 replicate wells of each sample using Cricket Graph (CA Associates, […].). […] Group comparisons were based upon pairwise, 2-tailed Student's t-tests. Several independent experiments were performed for most samples, as noted in the figure legends. […] Cell survival is reported as the number of viable RGCs per high-powered field.

[2] = test system: goldfish retinal ganglion cells; assay: Cell survival in goldfish retinal ganglion cell cultures (viable RGCs per field)
Method: Goldfish (Comet Variety, Mt. Parnell Fisheries, Mt. Parnell Pa.), 6-10 cm in length, were dark-adapted and their retinas dissected. Retinas were incubated with papain (20 μg/ml), activated with cysteine (2.8 mM) for 30 minutes at room temperature, then dissociated by gentle trituration. […] Low density cultures were achieved by plating c. 5×10^3 cells/well into poly L-lysine coated, 24-well culture dishes (Costar, Cambridge, Mass.). […] In brief, retinas from postnatal day 8 Sparague-Dawley rats were dissociated using papain activated with cysteine. Macrophages were removed by incubation with an anti-rat macrophage antibody (Accurate) followed by immunopanning with an anti-rabbit 1gG antibody. Ganglion cells were isolated by immunopanning with an anti-Thy-1 antibody, then dislodged with trypsin for use in low-density cultures. Rat retinal ganglion cells were maintained at 37° C. in a CO2 incubator using the same medium described above except for the presence of 30 mM bicarbonate.
In a typical experiment, samples were plated in quadruplicate in randomized positions of a 24-well plate and the code was concealed to ensure that growth was evaluated in a blinded fashion. Each experiment contained 4 wells of a negative control (media plus supplements only) and 4 wells of a positive control (a standardized AF-1 sample of known activity). Growth and survival were assessed after 6 days for all ganglion cells in 25 consecutive fields of each well using phase contrast microscopy at 400× magnification (c. 150 ganglion cells counted per well). […] After the completion of counting, the code was broken, the data tabulated, and means and standard errors were calculated for the 4 replicate wells of each sample using Cricket Graph (CA Associates, Islandia, N.Y.). Data were normalized by subtracting the growth in the negative controls (usually 4-5%) and dividing by the net growth in the positive controls. […] Group comparisons were based upon pairwise, 2-tailed Student's t-tests. Several independent experiments were performed for most samples, as noted in the figure legends. In some cases, cell viability was assessed with the dye 5,6-carboxyfluorescein diacetate. Cell survival is reported as the number of viable RGCs per high-powered field.

GAP-43 = GAP-43 immunohistochemistry in goldfish retinal ganglion cells; conditions: immunostaining
Method: One hallmark of optic nerve regeneration in vivo is the enhanced expression of the membrane phosphoprotein GAP-43. To investigate whether this upregulation is induced by purines, immunohistochemistry was carried out using a polyclonal rabbit antiserum against recombinant […] GAP-43. Recombinant zebrafish GAP-43 was made by transforming E. coli with a cDNA isolated by Dr. Eva Reinhard, University of Basel, Switzerland (see Reinhard et al., Development, 120: 1757-1775, 1994, the contents of which are incorporated herein by reference) subcloned into the prokaryotic expression vector pTrcHisB (Invitrogen). The protein produced was purified by Ni^2+-NTA-affinity chromatography and used to immunize rabbits. […] Inosine produced a 5.5-fold increase in the number of intensely stained cells over L-15, whereas AF-1 produced a 8-fold increase. In all 3 cases, the intensity of GAP-43 immunostaining correlated strongly with axonal length.

[3] = DCF alone, with AF-1, or with guanosine

Molecule: Nc1ncnc2c1ncn2[C@@H]1O[C@H](CO)[C@@H](O)[C@H]1O [adenosine]
- outgrowth when adenosine hydrolysis is blocked ([1]; 100 μM adenosine in the presence of 10 μM DCF): suppress growth; also recorded: failed to stimulate growth, but caused it to decline below baseline levels
- EC50 ([1]; Carassius auratus, 144 h): 10 to 15 µM
- Emax ([1]; Carassius auratus, normalized to AF-1 positive control, adenosine 50-100 μM, guanosine 100 μM, inosine above 25 or 50 μM, read-out: maximal response relative to the level induced by AF-1): 60%
- outgrowth at higher concentrations [1]: outgrowth decreased
- axonal outgrowth activity [1]: stimulated almost as much outgrowth from goldfish retinal ganglion cells as AF-1
- cell survival when ADA is blocked with DCF [2]: causes adenosine to suppress growth (e, top) and survival

Molecule: OC[C@H]1O[C@@H](n2cnc3c2NC=NC[C@H]3O)C[C@@H]1O [DCF, deoxycoformycin]
- effects of DCF on outgrowth [1, 3]: did not occur
- effects of DCF on survival [2, 3]: did not occur

Molecule: Nc1nc2c(ncn2[C@@H]2O[C@H](CO)[C@@H](O)[C@H]2O)c(=O)[nH]1 [guanosine]
- EC50 ([1]; Carassius auratus, 144 h): 20 to 30 µM
- outgrowth at higher concentrations [1]: no obvious decrease in activity
- dependence of outgrowth on cell density ([1]; fixed concentration (100 μM), 3-4-fold range of cell densities): growth is not a function of cell density; also recorded: independent of cell density
- EC50 [1]: 25 µM
- maximal response relative to the level induced by AF-1 ([1]; normalized to AF-1 positive control, adenosine 50-100 μM, guanosine 100 μM, inosine above 25 or 50 μM): same maximal level of activity as adenosine
- axonal outgrowth activity [1]: stimulated almost as much outgrowth from goldfish retinal ganglion cells as AF-1
- GAP-43 levels relative to L-15 treated controls (GAP-43): large increase in GAP-43 levels

Molecule: CCCCCC[C@@H]([C@@H](C)O)n1cnc2c(N)ncnc21 (racemic) [EHNA, erythro-9-(2-hydroxy-3-nonyl) adenine]
- effect on adenosine-stimulated outgrowth ([1]; 10 μM EHNA, 100 μM adenosine): rendered adenosine (100 μM) ineffective in stimulating outgrowth
- reduction of growth stimulated by guanosine or AF-1 ([1]; EHNA 10 μM): about 50%
- cell survival [2]: not altering cell survival

B1: ADA: exogenous adenosine deaminase enzyme (protein, UniProt P00813 2-363, looked up)
Adenosine deaminase: AQTPAFDKPKVELHVHLDGSIKPETILYYGRRRGIALPANTAEGLLNVIGMDKPLTLPDFLAKFDYYMPAIAGCREAIKRIAYEFVEMKAKEGVVYVEVRYSPHLLANSKVEPIPWNQAEGDLTPDEVVALVGQGLQEGERDFGVKARSILCCMRHQPNWSPKVVELCKKYQQQTVVAIDLAGDETIPGSSLLPGHVQAYQEAVKSGIHRTVHAGEVGSAEVVKEAVDILKTERLGHGYHTLEDQALYNRLRQENMHFEICPWSSYLTGAWKPDTEHAVIRLKNDQANYSLNTDDPLIFKSTLDTDYQMTKRDMGFTEEEFKRLNINAAKSSFLPEDEKRELLDLLYKAYGMPPSASAGQNL
- effect on outgrowth stimulated by 100 μM adenosine ([1]; exogenous ADA 0.4 U/ml): unaltered; also recorded: did not diminish axon outgrowth
- effect on cell survival ([2]; exogenous ADA 0.4 U/ml with 100 μM adenosine): did not diminish axon outgrowth stimulated by 100 μM adenosine or affect cell survival
